Assay [1] deals with petunia leaf disks transformed with control vector pMON505. The experiment in a line: Leaf disk callus growth on glyphosate medium, control disks. The format is cell-based. The note with it: within 10 days. As to the method: (§1) Leaf disks with diameters of 6 mm (1/4 inch) were taken from surface-sterilized petunia leaves. They were cultured on MS104 agar medium for 2 days to promote partial cell wall formation at the wound surfaces. They were then submerged in a culture of A. tumefaciens cells containing both pMON546 and GV3111-SE which had grown overnight in Luria broth at 28° C., and shaken gently. The leaf disks were removed from the bacterial suspension, blotted dry, and incubated upside down on filter paper placed over "nurse" cultures of tobacco cells, as described by Horsch (1980). After 2 or 3 days, the disks were transferred to petri dishes containing MS media with 500 μg/ml carbenicillin and 0. 0.1, 0.25, or 0.5 mM glyphosate (sodium salt), with no nurse cultures.
Control tissue was created using A. tumefaciens cells containing the helper plasmid pGV3111-SE and a different plant transformation vector, pMON505, which contained a T-DNA region with a NOS/NPTII/NOS kanamycin resistance gene and a NOS selectable marker gene identical to pMON546, but without the CaMV35S/EPSP synthase gene.

Assay [2] deals with petunia leaf disks transformed with pMON546 (CaMV35S/EPSP synthase gene). Put plainly: Leaf disk callus growth on glyphosate medium, transformed disks. Type of assay: cell-based. To be noted: within 10 days. As to the method: as §1
For assay [3], the system named is tobacco plants transformed with wild-type EPSP synthase. Put plainly: Relative effect of glyphosate spray, WT plants. The format is in vivo, Nicotiana tobacam CV H425. The text has this: A culture of A. tumefaciens cells containing pMON567/pGV3111-SE was co-cultured with leaf disks taken from tobacco plants (Nicotiana tobacam CV H425) as described by Horsch (1985). The Agrobacterium cells inserted the variant EPSP synthase gene into the chromosomes of the plant cells. Plant cells resistant to kanamycin were selected and regenerated into differentiated plants by the procedure of Horsch (1985).
Progeny of these plants were propagated and grown to a rosette diameter of about 10 cm corresponding to a plant age of about four weeks. The plants were sprayed with glyphosate at levels corresponding to 0.4, 2.0 and 3.6 pounds acid equivalent/acre. The effect of glyphosate on the transformed plants were scored at 7, 14 and 28 days. The effect was translated to a numerical scale of 0-10 in which 0 represents total kill and 10 is the normal, unsprayed plant. […] The values represent the best transformant for both wild-type EPSP synthase and glypho sate-tolerant EPSP synthase genes.

Assay [4] relates to transgenic canola plants containing pMON10074 (Arabidopsis EPSPS gly-ala(101), ala-thr(192)). Put plainly: Glyphosate spray of canola, pMON10074 plants. Type of assay: in vivo. To be noted: 0.56 kg/ha spray; 15 transgenic plants. An excerpt:
The resulting plasmid, pMON8324, was partially sequenced to confirm the mutagenesis. […] The pMON10074 plasmid contains the following DNA segments (FIG. 5, clockwise). First, the 0.93 kb fragment isolated from transposon Tn7 which encodes bacterial spectinomycin/streptomycin resistance (Spc/Str), and is a determinant for selection in E. coli and Agrobacterium tumefaciens (Fling et al. 1985). This is joined to the chimeric kanamycin resistance gene engineered for plant expression to allow selection of the transformed tissue. […]
A total of 15 transgenic canola plants containing the pMON10074 construct, and 2 non-transformed controls were sprayed with glyphosate at a commercial rate of 0.56 kg/ha. The effect of glyphosate on both the vegetative and reproductive performance of the sprayed plants was scored at 7, 14 and 28 days after spray. […]

Assay [5] deals with tobacco, sugarbeet, tomato, soybean and cotton plants transformed with the variant EPSPS gene. The experiment in a line: Glyphosate tolerance of other transformed plant species. To be noted: in vivo. The text has this: A gene encoding the variant EPSPS enzyme of the present invention having a glycine to alanine substitution at position 101 and an alanine to threonine substitution at position 192 of the mature EPSPS enzyme has also been introduced into other plant species such as tobacco, sugarbeet, tomato, soybean and cotton. […] In particular, the glycine to alanine and alanine to threonine substitutions of the present invention have been introduced into a genomic clone of the Arabidopsis EPSPS gene and this gene introduced into canola and tobacco plants using suitable plant transformation vectors.

[6] abbreviates: 0.25 mM glyphosate (sodium salt).
[7] abbreviates: 0.5 mM glyphosate (sodium salt).

Structures are written as SMILES.

In the case of `O=C(O)CNCP(=O)(O)O` [glyphosate, N-phosphonomethylglycine], the callus growth in assay [1] (setting [6]) was “very little growth of callus from control disks”; in assay [1] (setting [7]), “no callus growth from the control disks”; in assay [2] (setting [6]) it was “substantial growth of transformed tissue occurred”; in assay [2] (setting [7]), “a significant number of calli grew from the transformed disks”. Besides, the “callus growth, transformed versus control disks” value in assay [2] (0.1 mM glyphosate (sodium salt)) is “little detectable difference between the control disks and the transformed tissue”. For the same molecule, the “Relative Effect of Glyphosate (0 total kill, 10 no effect)” value in assay [3] (0.4 pounds/acre (0.448 kg/hectare), day 7, best transformant) is listed as 6.0; in assay [3] (0.4 pounds/acre (0.448 kg/hectare), day 14, best transformant) it was 7.0; in assay [3] (0.4 pounds/acre (0.448 kg/hectare), day 28, best transformant), 9.0; in assay [3] (2.0 pounds/acre (2.242 kg/hectare), day 7, best transformant), 5.0; in assay [3] (2.0 pounds/acre (2.242 kg/hectare), day 14, best transformant), 1.8; in assay [3] (2.0 pounds/acre (2.242 kg/hectare), day 28, best transformant), 0.8. Besides, the “Relative Effect of Glyphosate (0 total kill, 10 no effect)” value was 5.0 in assay [3] (3.6 pounds/acre (4.035 kg/hectare), day 7, best transformant); 1.7 in assay [3] (3.6 pounds/acre (4.035 kg/hectare), day 14, best transformant); 0.8 in assay [3] (3.6 pounds/acre (4.035 kg/hectare), day 28, best transformant). In assay [4], the “reproductive score (scale 0-10, 0 total kill, 10 normal unsprayed plant)” value was 7 out of 15 had reproductive scores greater than 8 with 3 of them scoring 10. Besides, the “vegetative score (scale 0-10, 0 total kill, 10 normal unsprayed plant)” value in assay [4] is listed as 6 out of 15 plants having vegetative scores greater than 8, with 1 scoring a 10. For the same molecule, in assay [5], the “glyphosate tolerance of transformed plants” value is recorded as “exhibited glyphosate tolerance”.

For the origin of these results see US5866775A, “Glyphosate-tolerant 5-enolpyruvyl-3-phosphoshikimate synthases” (Monsanto Company, priority 1990, dated 1999).
